Reference: PMC6344862, “Hexameric assembly of the AAA+ protein McrB is necessary for GTPase activity” (Nucleic Acids Research, 2018)

Experiments:
[1] = biological target: T1, McrBΔN (Escherichia coli, UniProt P15005); assay: electron cryomicroscopy 2D class averages, hexamer; type: binding; details: 1 mM GDPNP, 1 mM MgCl2, pH 7.4
T1 construct: gene mcrB; C-terminal Gly-Ser-His6 tag (untagged version for SAXS)

[2] = biological target: T2, McrBC (Escherichia coli, UniProt P15005); assay: steady-state intrinsic tryptophan fluorescence; type: binding; details: 0.5 uM McrB, 0.125 uM McrC, 1 mM nucleotide, 5 mM MgCl2, pH 8, 25 C
T2 construct: gene mcrB; full-length McrB with C-terminal Gly-Ser-His6 plus untagged McrC, mixed 4:1 or SEC-purified complex; tetradecamer 734 kDa; with Type IV methyl-directed restriction enzyme EcoKMcrBC (5-methylcytosine-specific restriction enzyme subunit McrC)

[3] = biological target: T3, McrB (Escherichia coli, UniProt P15005); assay: steady-state intrinsic tryptophan fluorescence; type: binding; details: 0.5 uM McrB, 1 mM nucleotide, 5 mM MgCl2, pH 8, 25 C
[4] = biological target: McrB (Escherichia coli, UniProt P15005, E280Q); assay: SEC-MALS, hexamer with nucleotide; type: binding; details: 18 uM protein
[5] = biological target: McrB (Escherichia coli, UniProt P15005, E280A); assay: SEC-MALS, hexamer with nucleotide; type: binding; details: 18 uM protein
[6] = biological target: T1, McrBΔN; assay: SEC, nucleotide-induced oligomerisation; type: binding; details: 18 uM protein, MgCl2, pH 8
[7] = biological target: T3, McrB; assay: SEC, nucleotide-induced oligomerisation; type: binding; details: 18 uM protein, MgCl2, pH 8
[8] = biological target: T1, McrBΔN; assay: malachite green GTPase; SEC and SEC-MALS oligomerisation; type: biochemical; details: 1 mM GTP, 15 mM MgCl2, 50 mM KCl, pH 8, 37 C
[9] = biological target: T4, McrBΔNC (Escherichia coli, UniProt P15005); assay: SAXS of nucleotide-dependent tetradecamer; type: binding; details: 1 mg/ml protein
T4 construct: gene mcrB; McrB residues 162-460 (without His6 tag for SEC-MALS and SAXS) plus untagged McrC; tetradecamer 500 kDa; with Type IV methyl-directed restriction enzyme EcoKMcrBC (5-methylcytosine-specific restriction enzyme subunit McrC)

[10] = biological target: T1, McrBΔN; assay: SAXS of nucleotide-dependent hexamer; type: binding; details: McrBΔN without His-tag, 1 mg/ml
[11] = biological target: McrBΔN^WT (McrBΔN without His6 tag) (Escherichia coli K12) (UniProt P15005); assay: SAXS; 1 mg/ml protein in buffer B100 with GTPγS, 15°C, beamline B21 Diamond; mass by SAXSMoW2
[12] = biological target: McrB (full length, C-terminal His6) (Escherichia coli K12) (UniProt P15005); assay: SEC-MALS; Superose 6 10/300, 0.5 ml/min, 10 mM Tris-Cl pH 7.4, 100 mM NaCl, 1 mM MgCl2, 1 mM DTT, 0.1 mM GTP; McrBC and McrBΔNC complexes run at 0.6 mg/ml
[13] = biological target: McrBΔN^WT (McrBΔN without His6 tag) (Escherichia coli K12) (UniProt P15005); assay: as above

Nc1nc2c(ncn2[C@@H]2O[C@H](COP(=O)(O)OP(=O)(O)NP(=O)(O)O)[C@@H](O)[C@H]2O)c(=O)[nH]1 [GDPNP] was tested, and the “electron cryomicroscopy 2D class averages, hexamer” value [1] was “Imaging of McrB or McrBΔN after the addition of GDPNP showed round particles”, the Trp fluorescence increase [2] was ~ 15% and the Trp fluorescence increase [3] was ~ 20%.

Nc1nc2c(ncn2[C@@H]2O[C@H](COP(=O)(O)OP(=O)(O)O)[C@@H](O)[C@H]2O)c(=O)[nH]1 [GDP] was tested, and the “SEC-MALS, hexamer with nucleotide” value [4] was “had a mass comparable to wild type McrB hexamer in presence of GTP or GDP”, the “SEC-MALS, hexamer with nucleotide” value [5] was “had a mass comparable to wild type McrB hexamer in presence of GTP or GDP” and the “SEC, nucleotide-induced oligomerisation” value [6] was “In presence of GTP or GDP, McrB and McrBΔN eluted as a high molecular mass oligomer”. For the same molecule, the “SEC, nucleotide-induced oligomerisation” value [7] was “In presence of GTP or GDP, McrB and McrBΔN eluted as a high molecular mass oligomer”.

Nc1nc2c(ncn2[C@@H]2O[C@H](COP(=O)(O)OP(=O)(O)OP(=O)(O)O)[C@@H](O)[C@H]2O)c(=O)[nH]1 [GTP] was tested, and the “SEC-MALS, hexamer with nucleotide” value [4] was “had a mass comparable to wild type McrB hexamer in presence of GTP or GDP”, the “SEC-MALS, hexamer with nucleotide” value [5] was “had a mass comparable to wild type McrB hexamer in presence of GTP or GDP” and the Trp fluorescence increase ([2]; GTP hydrolysed by this complex) was ~ 15%. The “malachite green GTPase; SEC and SEC-MALS oligomerisation” value [8] was “only a weak GTPase activity for both McrB (Figure 5A) and McrBΔN” and the Trp fluorescence increase ([3]; weak GTPase without McrC) was ~ 20%.

With Nc1nc2c(ncn2[C@@H]2O[C@H](COP(=O)(O)OP(=O)(O)OP(O)(O)=S)[C@@H](O)[C@H]2O)c(=O)[nH]1 [GTPγS] the “SAXS of nucleotide-dependent tetradecamer” value [9] was “Good quality data was collected for McrBΔN and McrBΔNC in presence of the non-hydrolysable analogue GTPγS”, the “SAXS of nucleotide-dependent hexamer” value [10] was “Good quality data was collected for McrBΔN and McrBΔNC in presence of the non-hydrolysable analogue GTPγS” and the Trp fluorescence increase [2] was ~ 23%. For the same molecule, the Trp fluorescence increase [3] was ~ 30%.

B1: McrC (natural protein)
chain: MEQPVIPVRNIYYMLTYAWGYLQEIKQANLEAIPGNNLLDILGYVLNKGVLQLSRRGLELDYNPNTEIIPGIKGRIEFAKTIRGFHLNHGKTVSTFDMLNEDTLANRIIKSTLAILIKHEKLNSTIRDEARSLYRKLPGISTLHLTPQHFSYLNGGKNTRYYKFVISVCKFIVNNSIPGQNKGHYRFYDFERNEKEMSLLYQKFLYEFCRRELTSANTTRSYLKWDASSISDQSLNLLPRMETDITIRSSEKILIVDAKYYKSIFSRRMGTEKFHSQNLYQLMNYLWSLKPENGENIGGLLIYPHVDTAVKHRYKINGFDIGLCTVNLGQEWPCIHQELLDIFDEYLK
B1 showed a copies of McrB in the complex [11] of 12, a copies of McrC in the complex [11] of 2 and a copies of McrB in the complex [12] of 12. The copies of McrC in the complex [12] was 2, the copies of McrB in the complex [13] was 12 and the copies of McrC in the complex [13] was 2.
